This is an account of results in ChEMBL document CHEMBL3822377, “Locking PDK1 in DFG-out conformation through 2-oxo-indole containing molecules: Another tools to fight glioblastoma” (Eur J Med Chem, 2016).

For assay [1], the target named is T1, 3-phosphoinositide-dependent protein kinase 1 (Homo sapiens) (UniProt O15530).
T1 sequence (whole entry): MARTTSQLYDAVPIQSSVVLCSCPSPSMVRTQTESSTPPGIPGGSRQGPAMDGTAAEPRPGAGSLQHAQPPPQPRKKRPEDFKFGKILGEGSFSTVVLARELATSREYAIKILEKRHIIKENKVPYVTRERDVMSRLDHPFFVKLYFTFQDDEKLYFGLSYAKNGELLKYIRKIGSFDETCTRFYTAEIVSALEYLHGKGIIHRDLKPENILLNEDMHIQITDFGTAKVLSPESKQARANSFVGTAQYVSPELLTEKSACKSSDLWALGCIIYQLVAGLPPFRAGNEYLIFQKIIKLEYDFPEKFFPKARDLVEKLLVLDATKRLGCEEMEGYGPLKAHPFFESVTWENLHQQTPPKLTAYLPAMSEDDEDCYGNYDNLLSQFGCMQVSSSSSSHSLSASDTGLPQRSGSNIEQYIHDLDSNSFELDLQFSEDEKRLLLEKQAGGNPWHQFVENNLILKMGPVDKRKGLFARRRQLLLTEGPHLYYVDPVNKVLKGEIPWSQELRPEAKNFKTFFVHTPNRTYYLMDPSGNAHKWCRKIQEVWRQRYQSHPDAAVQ
Kind of assay: Inhibition of PDK1-mediated cell migration in human U87MG cells at 10 uM […] measured at 6 to 24 hrs by scratch wound assay. The assay is classed as cell-based. As to conditions: U-87MG ATCC.

In assay [2] the target is Glycogen synthase kinase-3 alpha (Homo sapiens) (UniProt P49840). Kind of assay: Inhibition of GSK3 alpha (unknown origin) at 100 nM by Z-lyte assay.
The target of assay [3] is RAC-beta serine/threonine-protein kinase (Homo sapiens) (UniProt P31751). Kind of assay: Inhibition of His-tagged full-length human AKT2 expressed in baculovirus system at 100 nM by Z-lyte assay.
Assay [4] concerns the target Serine/threonine-protein kinase PAK 6 (Homo sapiens) (UniProt Q9NQU5). Kind of assay: Inhibition of His-tagged full-length recombinant human PAK6 expressed in baculovirus system at 100 nM by Z-lyte assay.
Assay [5] concerns the target Mitogen-activated protein kinase 3 (Homo sapiens) (UniProt P27361). Kind of assay: Inhibition of GST-tagged full-length recombinant human MAPK3 expressed in baculovirus system at 100 nM by Z-lyte assay.
Assay [6] is described as follows: Induction of apoptosis in human GSC cells assessed as dead cells by measuring phosphatidylserine externalisation at 10 uM after 7 days in presence of 7-amino-actinomysin by AnnexinV/FITC staining-based flow cytometry (reference value: 1.68%). The assay is classed as functional.
Assay [7] deals with Serine/threonine-protein kinase Chk1 (Homo sapiens) (UniProt O14757). Kind of assay: Inhibition of His-tagged full-length human CHEK1 expressed in baculovirus system at 100 nM by Z-lyte assay.
The target in assay [8] is Mitogen-activated protein kinase 1 (Homo sapiens) (UniProt P28482). Kind of assay: Inhibition of GST-tagged full-length human MAPK1 expressed in Escherichia coli at 100 nM by Z-lyte assay.
Assay [9] addresses Dual specificity protein kinase CLK1 (Homo sapiens) (UniProt P49759). As to the kind of experiment: Inhibition of GST-tagged human CLK1 expressed in Escherichia coli at 100 nM by Z-lyte assay.
The target of assay [10] is Protein kinase C epsilon type (Homo sapiens) (UniProt Q02156). Kind of assay: Inhibition of full-length recombinant human PRKCE expressed in baculovirus system at 100 nM by Z-lyte assay.
Assay [11] concerns the target Tyrosine-protein kinase JAK1 (Homo sapiens) (UniProt P23458). As to the kind of experiment: Inhibition of cytosolic GST-tagged full-length recombinant human JAK1 expressed in baculovirus system at 100 nM by Z-lyte assay.
For assay [12], the system named is U-87 MG. Kind of assay: Induction of apoptosis in human U87MG cells assessed as live cells by measuring phosphatidylserine externalisation at 10 uM after 72 hrs by AnnexinV/FITC staining-based flow cytometry (reference value: 87.05%). Type of assay: functional, U-87MG ATCC.
Assay [13] deals with CDK7/Cyclin H/MNAT1 (Homo sapiens) (UniProt P51946+P50613+P51948). Kind of assay: Inhibition of His-tagged full-length human recombinant CDK7/Cyclin H/MNAT1 expressed in baculovirus system at 100 nM by adapta assay.
Assay [14] has as its target Casein kinase II subunit alpha' (Homo sapiens) (UniProt P19784). As to the kind of experiment: Inhibition of GST-tagged full-length human recombinant CSNK2A2 expressed in baculovirus system at 100 nM by Z-lyte assay.
Assay [15] deals with Cyclin-dependent kinase 5/CDK5 activator 1 (Homo sapiens) (UniProt Q00535+Q15078). Kind of assay: Inhibition of His-tagged full-length human CDK5/p35 expressed in baculovirus system at 100 nM by Z-lyte assay.
Assay [16] can be described thus: Induction of apoptosis in human GSC cells assessed as early apoptotic cells by measuring phosphatidylserine externalisation at 10 uM after 7 days by AnnexinV/FITC staining-based flow cytometry (reference value: 6.69%). Type of assay: functional.

Active and inactive are the calls of the source. The rule behind the calls is not given here.

RAC-beta serine/threonine-protein kinase (Homo sapiens), sequence (P31751 whole entry): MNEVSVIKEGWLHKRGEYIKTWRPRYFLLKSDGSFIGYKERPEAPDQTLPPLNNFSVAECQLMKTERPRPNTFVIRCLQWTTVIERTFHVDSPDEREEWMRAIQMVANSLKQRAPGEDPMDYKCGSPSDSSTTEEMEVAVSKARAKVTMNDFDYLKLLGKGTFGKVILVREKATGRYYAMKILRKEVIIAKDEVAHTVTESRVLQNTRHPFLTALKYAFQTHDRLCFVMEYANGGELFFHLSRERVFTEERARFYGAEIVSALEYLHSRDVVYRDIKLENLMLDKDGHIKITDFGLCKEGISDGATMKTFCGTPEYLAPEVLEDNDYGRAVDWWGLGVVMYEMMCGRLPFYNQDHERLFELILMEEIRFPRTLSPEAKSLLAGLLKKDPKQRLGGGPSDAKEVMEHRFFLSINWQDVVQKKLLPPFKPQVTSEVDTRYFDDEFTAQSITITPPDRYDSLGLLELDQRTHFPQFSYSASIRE
Glycogen synthase kinase-3 alpha (Homo sapiens), sequence (P49840 2-483 limits assumed): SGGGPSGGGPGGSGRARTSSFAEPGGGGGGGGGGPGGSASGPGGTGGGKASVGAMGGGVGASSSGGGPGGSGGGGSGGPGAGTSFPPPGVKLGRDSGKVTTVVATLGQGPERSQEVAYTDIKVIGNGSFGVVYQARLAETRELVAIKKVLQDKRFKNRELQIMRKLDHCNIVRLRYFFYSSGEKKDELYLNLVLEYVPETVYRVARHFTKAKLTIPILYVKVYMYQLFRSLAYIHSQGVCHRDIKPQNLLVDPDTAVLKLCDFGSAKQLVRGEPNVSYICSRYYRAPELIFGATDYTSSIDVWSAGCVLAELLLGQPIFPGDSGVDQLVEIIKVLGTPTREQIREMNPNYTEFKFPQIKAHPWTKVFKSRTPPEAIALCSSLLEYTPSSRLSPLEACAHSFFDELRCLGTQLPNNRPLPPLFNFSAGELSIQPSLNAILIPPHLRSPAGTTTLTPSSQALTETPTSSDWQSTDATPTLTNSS
Serine/threonine-protein kinase Chk1 (Homo sapiens), sequence (O14757 whole entry): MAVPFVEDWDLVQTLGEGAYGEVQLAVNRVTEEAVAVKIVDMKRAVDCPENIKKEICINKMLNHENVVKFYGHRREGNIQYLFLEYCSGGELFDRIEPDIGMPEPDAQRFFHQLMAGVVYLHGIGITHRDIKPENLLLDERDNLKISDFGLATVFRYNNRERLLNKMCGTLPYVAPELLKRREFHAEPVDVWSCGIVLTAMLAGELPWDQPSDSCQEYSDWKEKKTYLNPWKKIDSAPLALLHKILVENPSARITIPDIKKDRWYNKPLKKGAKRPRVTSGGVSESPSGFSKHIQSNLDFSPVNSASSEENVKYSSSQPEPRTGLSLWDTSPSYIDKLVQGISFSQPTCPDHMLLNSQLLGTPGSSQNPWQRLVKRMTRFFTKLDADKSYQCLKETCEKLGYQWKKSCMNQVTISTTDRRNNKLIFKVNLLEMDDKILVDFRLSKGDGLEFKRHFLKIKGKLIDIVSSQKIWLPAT
Tyrosine-protein kinase JAK1 (Homo sapiens), sequence (P23458 whole entry): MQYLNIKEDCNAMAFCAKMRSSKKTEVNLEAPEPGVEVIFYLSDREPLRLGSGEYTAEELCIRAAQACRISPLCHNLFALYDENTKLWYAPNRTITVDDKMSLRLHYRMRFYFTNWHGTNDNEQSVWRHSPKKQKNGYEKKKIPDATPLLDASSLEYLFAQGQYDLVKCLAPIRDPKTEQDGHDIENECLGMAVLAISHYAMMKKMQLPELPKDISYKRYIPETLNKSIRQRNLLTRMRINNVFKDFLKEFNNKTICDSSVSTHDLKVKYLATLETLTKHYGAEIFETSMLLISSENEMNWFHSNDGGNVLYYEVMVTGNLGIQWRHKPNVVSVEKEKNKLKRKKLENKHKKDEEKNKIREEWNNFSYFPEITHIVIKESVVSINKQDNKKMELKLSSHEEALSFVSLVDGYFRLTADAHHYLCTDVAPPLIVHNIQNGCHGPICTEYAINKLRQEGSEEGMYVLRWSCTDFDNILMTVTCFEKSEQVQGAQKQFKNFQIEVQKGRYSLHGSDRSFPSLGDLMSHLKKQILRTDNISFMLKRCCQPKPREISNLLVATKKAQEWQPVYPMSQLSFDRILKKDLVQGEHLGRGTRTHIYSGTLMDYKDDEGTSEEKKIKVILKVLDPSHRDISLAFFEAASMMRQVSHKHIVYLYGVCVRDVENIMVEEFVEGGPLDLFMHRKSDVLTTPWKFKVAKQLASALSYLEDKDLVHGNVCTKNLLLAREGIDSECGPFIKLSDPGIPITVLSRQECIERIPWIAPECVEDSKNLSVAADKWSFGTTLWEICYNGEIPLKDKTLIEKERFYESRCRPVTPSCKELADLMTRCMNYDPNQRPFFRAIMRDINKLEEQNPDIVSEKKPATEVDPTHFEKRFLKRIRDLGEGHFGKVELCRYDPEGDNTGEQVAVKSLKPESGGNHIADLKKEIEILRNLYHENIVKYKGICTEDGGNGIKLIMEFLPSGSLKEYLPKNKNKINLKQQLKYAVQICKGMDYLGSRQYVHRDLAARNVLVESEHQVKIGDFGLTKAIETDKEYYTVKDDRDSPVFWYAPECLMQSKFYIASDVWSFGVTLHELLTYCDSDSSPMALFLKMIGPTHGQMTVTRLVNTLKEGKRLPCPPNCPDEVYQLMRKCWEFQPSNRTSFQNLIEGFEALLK
Mitogen-activated protein kinase 1 (Homo sapiens), sequence (P28482 whole entry): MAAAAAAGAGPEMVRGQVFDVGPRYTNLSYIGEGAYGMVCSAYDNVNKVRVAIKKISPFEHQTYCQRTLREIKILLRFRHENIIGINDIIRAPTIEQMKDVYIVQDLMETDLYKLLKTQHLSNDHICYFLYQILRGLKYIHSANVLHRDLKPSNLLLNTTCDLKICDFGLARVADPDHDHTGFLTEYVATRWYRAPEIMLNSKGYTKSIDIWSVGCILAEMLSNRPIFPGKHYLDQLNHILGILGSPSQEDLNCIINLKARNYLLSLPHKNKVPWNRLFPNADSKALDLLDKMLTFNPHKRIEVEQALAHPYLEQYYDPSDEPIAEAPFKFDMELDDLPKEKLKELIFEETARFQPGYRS
Serine/threonine-protein kinase PAK 6 (Homo sapiens), sequence (Q9NQU5 whole entry, looked up): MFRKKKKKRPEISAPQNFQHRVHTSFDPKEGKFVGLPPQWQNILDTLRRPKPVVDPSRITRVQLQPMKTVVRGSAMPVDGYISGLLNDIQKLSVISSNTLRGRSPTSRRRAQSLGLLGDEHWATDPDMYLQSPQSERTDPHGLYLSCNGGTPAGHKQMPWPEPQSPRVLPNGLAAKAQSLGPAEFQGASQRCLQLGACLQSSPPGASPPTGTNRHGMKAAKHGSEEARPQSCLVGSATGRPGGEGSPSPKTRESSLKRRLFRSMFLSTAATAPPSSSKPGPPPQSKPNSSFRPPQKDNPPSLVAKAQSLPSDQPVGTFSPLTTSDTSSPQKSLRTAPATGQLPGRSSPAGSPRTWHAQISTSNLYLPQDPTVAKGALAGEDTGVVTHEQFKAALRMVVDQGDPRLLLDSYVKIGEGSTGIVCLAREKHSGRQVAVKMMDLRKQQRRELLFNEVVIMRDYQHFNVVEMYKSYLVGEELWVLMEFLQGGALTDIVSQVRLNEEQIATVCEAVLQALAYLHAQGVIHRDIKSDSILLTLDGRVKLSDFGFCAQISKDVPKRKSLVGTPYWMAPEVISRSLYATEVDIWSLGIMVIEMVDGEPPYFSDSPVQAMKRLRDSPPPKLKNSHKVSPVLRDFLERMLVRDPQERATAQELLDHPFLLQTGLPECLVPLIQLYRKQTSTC
Protein kinase C epsilon type (Homo sapiens), sequence (Q02156 whole entry): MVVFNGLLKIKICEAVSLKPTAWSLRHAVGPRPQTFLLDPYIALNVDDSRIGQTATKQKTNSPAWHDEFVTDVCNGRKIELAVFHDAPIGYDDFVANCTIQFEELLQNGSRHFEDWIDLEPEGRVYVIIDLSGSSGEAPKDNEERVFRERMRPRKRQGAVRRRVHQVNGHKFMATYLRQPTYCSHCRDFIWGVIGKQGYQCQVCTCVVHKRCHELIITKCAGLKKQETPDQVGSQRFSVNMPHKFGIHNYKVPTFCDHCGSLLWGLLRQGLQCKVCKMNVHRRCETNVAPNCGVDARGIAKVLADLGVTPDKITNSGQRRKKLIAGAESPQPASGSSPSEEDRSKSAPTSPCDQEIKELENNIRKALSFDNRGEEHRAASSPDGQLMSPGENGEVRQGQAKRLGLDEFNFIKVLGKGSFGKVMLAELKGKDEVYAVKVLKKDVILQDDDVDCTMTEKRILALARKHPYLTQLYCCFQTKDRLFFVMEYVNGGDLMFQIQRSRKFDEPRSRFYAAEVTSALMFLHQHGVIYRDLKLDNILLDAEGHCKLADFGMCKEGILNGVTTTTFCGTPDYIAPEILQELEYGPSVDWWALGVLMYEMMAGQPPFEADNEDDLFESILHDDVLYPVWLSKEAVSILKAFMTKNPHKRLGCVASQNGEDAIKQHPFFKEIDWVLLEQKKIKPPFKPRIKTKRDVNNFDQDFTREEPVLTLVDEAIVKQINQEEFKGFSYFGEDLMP
Casein kinase II subunit alpha' (Homo sapiens), sequence (P19784 whole entry, looked up): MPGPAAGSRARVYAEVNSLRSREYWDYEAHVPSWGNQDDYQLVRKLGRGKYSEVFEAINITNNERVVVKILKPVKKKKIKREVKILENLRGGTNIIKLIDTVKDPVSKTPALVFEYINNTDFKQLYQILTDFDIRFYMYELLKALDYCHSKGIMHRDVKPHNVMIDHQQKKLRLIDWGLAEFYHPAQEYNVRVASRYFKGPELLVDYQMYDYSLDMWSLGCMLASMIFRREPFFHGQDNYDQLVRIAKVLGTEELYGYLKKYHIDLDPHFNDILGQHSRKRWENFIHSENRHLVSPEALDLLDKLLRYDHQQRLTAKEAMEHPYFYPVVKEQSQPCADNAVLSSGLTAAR

As for `O=C(CNC(=O)c1cccn(Cc2ccc(F)c(F)c2)c1=O)Nc1ccc2c(c1)/C(=C/c1cnc[nH]1)C(=O)N2`, the inhibition result in assay [1] was “Active”. The inhibition in assay [2] was 43%; in [3], -4%; in assay [4] it was -4%; in assay [5] it was -3%; in [7] it was 6%; in [8] it was 6%. The inhibition in assay [9] was -2%; in assay [10], 3%; in [11] it was -8%; in assay [13], 1%; in assay [14], 3%; in assay [15], 2%. For the same compound, the Activity in assay [6] came to 2.35%; in [12], 76.41%; in [16], 16.15%.
